The results in this text go back to patent US20240238423A9, “TETRAHYDROISOQUINOLINE HETEROBIFUNCTIONAL BCL-XL DEGRADERS” (Treeline Biosciences, Inc., priority 2022, published 2024).

In the assay the target is T1, Human BCL-XL protein (N-terminal HiBiT tagged BCL-XL in HT1080 cells) (Homo sapiens, UniProt Q07817).
T1 construct: expressed in transfected cells; host or cells: HT-1080 (ATCC CCL-121), stably transduced with lentivirus pLV-UBC-N-HiBiT-BCL-XL-PGK-puro and selected with puromycin
The experiment in a line: HiBiT based degradation assay. Format: cell-based. To be noted: HT1080 cells expressing HiBiT-BCL-XL; for Ymin (6 h) / Ymin (24 h): BCL-XL degradation normalized with DMSO control; for DC50: BCL-XL degradation. The procedure, abridged: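 This HiBiT degradation assay measured loss of BCL-XL in HT1080 cells that stably express an N-terminal HiBiT-BCL-XL fusion delivered by lentivirus. Cells were added to compound-spotted 384-well plates, and luminescence was read on a PHERAstar FSX reader. Signal was expressed relative to DMSO controls, curves were fitted by four-parameter logistic regression, and for hook-shaped curves the Ymin point served as the bottom plateau when calculating EC50.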
Background: HiBiT is a short tag that completes a luciferase, so light tracks the accessible tagged protein.

Read-outs that look alike come from different tables or passages of the source.

T1 sequence (Q07817 whole entry): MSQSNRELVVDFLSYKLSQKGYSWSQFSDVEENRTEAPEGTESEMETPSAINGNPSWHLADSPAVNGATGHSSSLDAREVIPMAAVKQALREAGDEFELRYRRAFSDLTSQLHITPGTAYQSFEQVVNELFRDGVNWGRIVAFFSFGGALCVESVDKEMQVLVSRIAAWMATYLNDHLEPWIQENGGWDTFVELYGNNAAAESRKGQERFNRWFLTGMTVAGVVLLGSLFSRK

As to `Cc1c(OCCOc2ccc(CC(=O)Nc3cccc4c(C5CCC(=O)NC5=O)nn(C)c34)cc2)cccc1-c1ccc(N2CCc3cccc(C(=O)Nc4nc5ccccc5s4)c3C2)nc1C(=O)O` (stereo not shown) [Compound 118, 6-[8-(1,3-benzothiazol-2-ylcarbamoyl)-3,4-dihydro-1H-isoquinolin-2-yl]-3-[3-[2-[4-[2-[[3-(2,6-dioxo-3-piperidyl)-1-methyl-indazol-7-yl]amino]-2-oxo-ethyl]phenoxy]ethoxy]-2-methyl-phenyl]pyridine-2-carboxylic acid], the “Ymin (6 h)” value (6 h) is given as “B (50% ≤ Ymin < 70%)”. In addition, under “24 h”, the “Ymin (24 h)” value is listed as “B (50% ≤ Ymin < 70%)”. Also, the DC50 is, setting by setting: (6 h, read-out: EC50 (6 h)) 0.1 to 1 µM; (24 h, read-out: EC50 (24 h)) 1 to 10 µM.
Take `Cc1c(OCCCC2CCN(CC3CCN(c4cccc5c(C6CCC(=O)NC6=O)nn(C)c45)CC3)CC2)cccc1-c1ccc(N2CCc3cccc(C(=O)Nc4nc5ccccc5s4)c3C2)nc1C(=O)O` (stereo not shown) [Compound 279, 6-[8-(1,3-benzothiazol-2-ylcarbamoyl)-3,4-dihydro-1H-isoquinolin-2-yl]-3-[3-[3-[1-[[1-[3-(2,6-dioxo-3-piperidyl)-1-methyl-indazol-7-yl]-4-piperidyl]methyl]-4-piperidyl]propoxy]-2-methyl-phenyl]pyridine-2-carboxylic acid]: the “Ymin (24 h)” value (24 h) is “A (Ymin < 50%)”. The DC50 (24 h, read-out: EC50 (24 h)) is under 0.1 µM.
For `Cc1c(OCC[C@H]2CC23CCN(CC(=O)Nc2ccc4c(C5CCC(=O)NC5=O)nn(C)c4c2)CC3)cccc1-c1ccc(N2CCc3cccc(C(=O)Nc4nc5ccccc5s4)c3C2)nc1C(=O)O` (stereo in doubt) [Compound 289b, 6-(8-(benzo[d]thiazol-2-ylcarbamoyl)-3,4-dihydroisoquinolin-2(1H)-yl)-3-(3-(2-((1R)-6-(2-((3-(2,6-dioxopiperidin-3-yl)-1-methyl-1H-indazol-6-yl)amino)-2-oxoethyl)-6-azaspiro[2.5]octan-1-yl)ethoxy)-2-methylphenyl)picolinic acid] the same measures were “A (Ymin < 50%)” and under 0.1 µM.
With `Cc1cc(OCCCN2CCN(CC(=O)N3CCN(c4ccc5c(C6CCC(=O)NC6=O)nn(C)c5c4)CC3)CC2)ccc1-c1ccc(N2CCc3cccc(C(=O)Nc4nc5ccccc5s4)c3C2)nc1C(=O)O` (stereo not shown) [Compound 153, 6-(8-(Benzo[d]thiazol-2-ylcarbamoyl)-3,4-dihydroisoquinolin-2(1H)-yl)-3-(4-(3-(4-(2-(4-(3-(2,6-dioxopiperidin-3-yl)-1-methyl-1H-indazol-6-yl)piperazin-1-yl)-2-oxoethyl)piperazin-1-yl)propoxy)-2-methylphenyl)picolinic acid], the “Ymin (6 h)” value (6 h) was “A (Ymin < 50%)”. Also, the “Ymin (24 h)” value (24 h) is on record as “A (Ymin < 50%)”. Also, the DC50 is under 0.1 µM (6 h, read-out: EC50 (6 h)) and under 0.1 µM (24 h, read-out: EC50 (24 h)).
On to `Cc1c(OCC[C@H](C)C2CCN(CC(=O)Nc3cccc4c(C5CCC(=O)NC5=O)nn(C)c34)CC2)cccc1-c1ccc(N2CCc3cccc(C(=O)Nc4nc5ccccc5s4)c3C2)nc1C(=O)O` (stereo partly drawn) [Compound 173a, 6-(8-(benzo[d]thiazol-2-ylcarbamoyl)-3,4-dihydroisoquinolin-2(1H)-yl)-3-(3-((3S)-3-(1-(2-((3-(2,6-dioxopiperidin-3-yl)-1-methyl-1H-indazol-7-yl)amino)-2-oxoethyl)piperidin-4-yl)butoxy)-2-methylphenyl)picolinic acid], for which the “Ymin (24 h)” value (24 h) is on record as “B (50% ≤ Ymin < 70%)”. Moreover, the DC50 (24 h, read-out: EC50 (24 h)) is under 0.1 µM.
On the same counts, the results for `Cc1cc(CCCOC2CCN(CC(=O)Nc3ccc4c(C5CCC(=O)NC5=O)nn(C)c4c3)CC2)ccc1-c1ccc(N2CCc3cccc(C(=O)Nc4nc5ccccc5s4)c3C2)nc1C(=O)O` (stereo not shown) [Compound 291, 6-[8-(1,3-benzothiazol-2-ylcarbamoyl)-3,4-dihydro-1H-isoquinolin-2-yl]-3-[4-[3-[[1-[2-[[3-(2,6-dioxo-3-piperidyl)-1-methyl-indazol-6-yl]amino]-2-oxo-ethyl]-4-piperidyl]oxy]propyl]-2-methyl-phenyl]pyridine-2-carboxylic acid] are “A (Ymin < 50%)” and under 0.1 µM.
Turning to `Cc1c(O[C@H]2CC[C@H](CCCCN3CC[C@H](c4ccc5c(C6CCC(=O)NC6=O)nn(C)c5c4)C3)CC2)cccc1-c1ccc(N2CCc3cccc(C(=O)Nc4nc5ccccc5s4)c3C2)nc1C(=O)O` (single isomer, unassigned) [Compound 332a], under “24 h”, the “Ymin (24 h)” value is “A (Ymin < 50%)”. In addition, for the setting “24 h, read-out: EC50 (24 h)”, the DC50 was under 0.1 µM.
On the same counts, the results for `Cc1c(OCCCN2CCN(CC3CCN(c4cccc5c(C6CCC(=O)NC6=O)nn(C)c45)CC3)CC2)cccc1-c1ccc(N2CCc3cccc(C(=O)Nc4nc5ccccc5s4)c3C2)nc1C(=O)O` (stereo not shown) [Compound 221, 6-(8-(benzo[d]thiazol-2-ylcarbamoyl)-3,4-dihydroisoquinolin-2(1H)-yl)-3-(3-(3-(4-((1-(3-(2,6-dioxopiperidin-3-yl)-1-methyl-1H-indazol-7-yl)piperidin-4-yl)methyl)piperazin-1-yl)propoxy)-2-methylphenyl)picolinic acid] are “A (Ymin < 50%)” and under 0.1 µM.
For `Cc1c(OCCCC[C@H]2CCCN(CC(=O)Nc3ccc4c(C5CCC(=O)NC5=O)nn(C)c4c3)C2)cccc1-c1ccc(N2CCc3cccc(C(=O)Nc4nc5ccccc5s4)c3C2)nc1C(=O)O` (stereo partly drawn) [Compound 202a, 6-[8-(1,3-benzothiazol-2-ylcarbamoyl)-3,4-dihydro-1H-isoquinolin-2-yl]-3-[3-[4-[(3S)-1-[2-[[3-(2,6-dioxo-3-piperidyl)-1-methyl-indazol-6-yl]amino]-2-oxo-ethyl]-3-piperidyl]butoxy]-2-methyl-phenyl]pyridine-2-carboxylic acid], the “Ymin (24 h)” value (24 h) is reported as “A (Ymin < 50%)”. Where the note is “24 h, read-out: EC50 (24 h)”, the DC50 was under 0.1 µM.
With `Cc1c(O[C@H]2CC[C@H](CC(F)(F)CN3CCN(c4cccc5c(C6CCC(=O)NC6=O)nn(C)c45)CC3)CC2)cccc1-c1ccc(N2CCc3cccc(C(=O)Nc4nc5ccccc5s4)c3C2)nc1C(=O)O` (stereo partly shown) [Compound 168a, 6-(8-(benzo[d]thiazol-2-ylcarbamoyl)-3,4-dihydroisoquinolin-2(1H)-yl)-3-(3-(((1r,4r)-4-(3-(4-(3-(2,6-dioxopiperidin-3-yl)-1-methyl-1H-indazol-7-yl)piperazin-1-yl)-2,2-difluoropropyl)cyclohexyl)oxy)-2-methylphenyl)picolinic acid], the “Ymin (24 h)” value (24 h) is listed as “B (50% ≤ Ymin < 70%)”. For the same compound, the DC50 (24 h, read-out: EC50 (24 h)) is under 0.1 µM.
On to `Cc1c(OCCCN2C[C@@H](C)N(CC(=O)Nc3cccc4c(C5CCC(=O)NC5=O)nn(C)c34)[C@@H](C)C2)cccc1-c1ccc(N2CCc3cccc(C(=O)Nc4nc5ccccc5s4)c3C2)nc1C(=O)O` (stereo partly drawn) [Compound 117a, 6-[8-(1,3-benzothiazol-2-ylcarbamoyl)-3,4-dihydro-1H-isoquinolin-2-yl]-3-[3-[3-[(3S,5R)-4-[2-[[3-(2,6-dioxo-3-piperidyl)-1-methyl-indazol-7-yl]amino]-2-oxo-ethyl]-3,5-dimethyl-piperazin-1-yl]propoxy]-2-methyl-phenyl]pyridine-2-carboxylic acid], for which, under “6 h”, the “Ymin (6 h)” value is reported as “B (50% ≤ Ymin < 70%)”. Where the note is “24 h”, the “Ymin (24 h)” value is recorded as “B (50% ≤ Ymin < 70%)”. In addition, the DC50 by setting is: (6 h, read-out: EC50 (6 h)) under 0.1 µM; (24 h, read-out: EC50 (24 h)) under 0.1 µM.
Turning to `Cc1c(OCCCCC2CCN(CC(=O)Nc3ccc4c(C5CCC(=O)NC5=O)nn(C)c4c3)CC2)cccc1-c1ccc(N2CCc3cccc(C(=O)Nc4nc5ccccc5s4)c3C2)nc1C(=O)O` (stereo not shown) [Compound 203, 6-(8-(benzo[d]thiazol-2-ylcarbamoyl)-3,4-dihydroisoquinolin-2(1H)-yl)-3-(3-(4-(1-(2-((3-(2,6-dioxopiperidin-3-yl)-1-methyl-1H-indazol-6-yl)amino)-2-oxoethyl)piperidin-4-yl)butoxy)-2-methylphenyl)picolinic acid], the “Ymin (6 h)” value (6 h) is on record as “B (50% ≤ Ymin < 70%)”. Also, the “Ymin (24 h)” value (24 h) is given as “A (Ymin < 50%)”. In addition, the DC50 by setting is: (6 h, read-out: EC50 (6 h)) under 0.1 µM; (24 h, read-out: EC50 (24 h)) under 0.1 µM.
For `Cc1c(Oc2ccccc2CCCC(=O)Nc2ccc3c(C4CCC(=O)NC4=O)nn(C)c3c2)cccc1-c1ccc(N2CCc3cccc(C(=O)Nc4nc5ccccc5s4)c3C2)nc1C(=O)O` (stereo not shown) [Compound 129, 6-(8-(benzo[d]thiazol-2-ylcarbamoyl)-3,4-dihydroisoquinolin-2(1H)-yl)-3-(3-(2-(4-((3-(2,6-dioxopiperidin-3-yl)-1-methyl-1H-indazol-6-yl)amino)-4-oxobutyl)phenoxy)-2-methylphenyl)picolinic acid], under “6 h”, the “Ymin (6 h)” value is given as “C (Ymin ≥ 70%)”. In addition, the “Ymin (24 h)” value (24 h) is “C (Ymin ≥ 70%)”. The DC50 was 1 to 10 µM (6 h, read-out: EC50 (6 h)) and under 0.1 µM (24 h, read-out: EC50 (24 h)).
Take `Cc1c(OCCN2CCN(CC(=O)Nc3ccc4c(C5CCC(=O)NC5=O)nn(C)c4c3)CC2)cccc1-c1ccc(N2CCc3cccc(C(=O)Nc4nc5ccccc5s4)c3C2)nc1C(=O)O` (stereo not shown) [Compound 103, 6-[8-(1,3-benzothiazol-2-ylcarbamoyl)-3,4-dihydro-1H-isoquinolin-2-yl]-3-[3-[2-[4-[2-[[3-(2,6-dioxo-3-piperidyl)-1-methyl-indazol-6-yl]amino]-2-oxo-ethyl]piperazin-1-yl]ethoxy]-2-methyl-phenyl]pyridine-2-carboxylic acid]: the “Ymin (6 h)” value (6 h) was “A (Ymin < 50%)”. The “Ymin (24 h)” value (24 h) is listed as “A (Ymin < 50%)”. For the same compound, the DC50 was under 0.1 µM (6 h, read-out: EC50 (6 h)) and under 0.1 µM (24 h, read-out: EC50 (24 h)).
